We go through two compounds from patent publication US9107918B2, “Method for determining sensitivity to irinotecan and use thereof” (Kabushiki Kaisha Yakult Honsha, priority 2009, dated 2015).

Structures can show the parent of a compound that is named as a salt.

Common to all, as to format: cell-based, human
In test [1] the test system is lung adenocarcinoma cell line PC-14. Put plainly: MTT growth inhibition, PC-14. The settings on record: PC-14 cells, 72 hours drug exposure. On the procedure: (§1) The sensitivity, to irinotecan and SN-38, of the 19 cultured human tumor cell lines which had been subjected to comprehensive gene expression analysis was determined through the MTT (methylthiazol tetrazolium bromide) method. Specifically, 4×10^3 cells/well of each cell line and 80 μL/well of culture medium (10% fetal serum-added RPMI1640 medium) were added to each well of a 96-well microplate (Nunclon; Nunc, Roskilde, Denmark), and culturing was performed for 24 hours in an incubator at 37° C. under 5% CO2. Thereafter, the culture medium (10% fetal serum-added RPMI1640 medium) was renewed, and SN-38 or irinotecan was added thereto at various concentrations. Culturing was further performed for 72 hours in an incubator at 37° C. under 5% CO2. […] By means of a microplate reader (Maxline Microplate Reader, Molecular Devices, Sunnyvale, Calif.), absorbance at 570 to 650 nm was measured. An average absorbance of wells of culture medium was subtracted from the absorbance of each well of the drug-treatment group, and the obtained values of the wells were averaged. Similarly, the average absorbance of wells of culture medium was subtracted from the absorbance of each well of the control group (non-drug-treatment group), and the obtained values of the wells were averaged. […]

Test [2] has as its system acquired SN-38 resistant cell line PC-6/SN2-5. As to the kind of experiment: MTT growth inhibition, PC-6/SN2-5. As to conditions: PC-6/SN2-5 cells, 72 hours drug exposure. On the procedure:
as §1

For test [3], the system named is oral epithelium epidermal cancer cell line KB. Put plainly: MTT growth inhibition, KB. The settings on record: KB cells, 72 hours drug exposure. On the procedure: as §1
The subject of test [4] is lung adenocarcinoma cell line A549. Put plainly: MTT growth inhibition, A549. As to conditions: A549 cells, 72 hours drug exposure. On the procedure:
as §1

In test [5] the test system is esophageal cancer cell line HEC-46. As to the kind of experiment: MTT growth inhibition, HEC-46. The settings on record: HEC-46 cells, 72 hours drug exposure. On the procedure:
as §1

Test [6] relates to acquired CDDP resistant cell line PC-14/CDDP. As to the kind of experiment: MTT growth inhibition, PC-14/CDDP. As to conditions: PC-14/CDDP cells, 72 hours drug exposure. On the procedure:
as §1

The subject of test [7] is squamous cell lung cancer cell line LC-S. Put plainly: MTT growth inhibition, LC-S. As to conditions: LC-S cells, 72 hours drug exposure. On the procedure:
as §1

The test system of test [8] is small-cell lung cancer cell line PC-6. As to the kind of experiment: MTT growth inhibition, PC-6. As to conditions: PC-6 cells, 72 hours drug exposure. On the procedure: as §1
The test system of test [9] is myelogenous leukemia cell line K562. As to the kind of experiment: MTT growth inhibition, K562. The settings on record: K562 cells, 72 hours drug exposure. On the procedure:
as §1

The subject of test [10] is gastric cancer cell line HSC-42. As to the kind of experiment: MTT growth inhibition, HSC-42. As to conditions: HSC-42 cells, 72 hours drug exposure. On the procedure: as §1
Test [11] concerns acquired CPT-11 resistant cell line PC-6/DQ2-2. Put plainly: MTT growth inhibition, PC-6/DQ2-2. As to conditions: PC-6/DQ2-2 cells, 72 hours drug exposure. On the procedure:
as §1

Test [12] deals with colon cancer cell line HCC-48. As to the kind of experiment: MTT growth inhibition, HCC-48. The settings on record: HCC-48 cells, 72 hours drug exposure. On the procedure:
as §1

In test [13] the test system is colon cancer cell line COLO201. Put plainly: MTT growth inhibition, COLO201. The settings on record: COLO201 cells, 72 hours drug exposure. On the procedure:
as §1

Test [14] relates to acquired CDDP (cisplatin) resistant cell line PC-9/CDDP. As to the kind of experiment: MTT growth inhibition, PC-9/CDDP. As to conditions: PC-9/CDDP cells, 72 hours drug exposure. On the procedure: as §1
For test [15], the system named is acquired multidrug resistant cell line K562/DOX. As to the kind of experiment: MTT growth inhibition, K562/DOX. The settings on record: K562/DOX cells, 72 hours drug exposure. On the procedure: as §1
The subject of test [16] is colon cancer cell line HCC-50. As to the kind of experiment: MTT growth inhibition, HCC-50. The settings on record: HCC-50 cells, 72 hours drug exposure. On the procedure: as §1
Test [17] relates to gastric cancer cell line MKN45. As to the kind of experiment: MTT growth inhibition, MKN45. As to conditions: MKN45 cells, 72 hours drug exposure. On the procedure:
as §1

The test system of test [18] is colon cancer cell line COLO320DM. Put plainly: MTT growth inhibition, COLO320DM. The settings on record: COLO320DM cells, 72 hours drug exposure. On the procedure:
as §1

The subject of test [19] is lung adenocarcinoma cell line PC-9. As to the kind of experiment: MTT growth inhibition, PC-9. As to conditions: PC-9 cells, 72 hours drug exposure. On the procedure:
as §1

The mark [20] stands for this setting: Homo sapiens, read-out: 50% Growth inhibitory concentration (IC50) determined by MTT method.

`CCc1c2c(nc3ccc(OC(=O)N4CCC(N5CCCCC5)CC4)cc13)-c1cc3c(c(=O)n1C2)COC(=O)[C@]3(O)CC` [Irinotecan, Irinotecan hydrochloride]: the IC50 in [1] (setting [20]) was determined as 4.67 µg/mL; in [2] (setting [20]), 2.85 µg/mL; in [3] (setting [20]) it was 2.23 µg/mL; in [4] (setting [20]), 5.63 µg/mL; in test [5] (setting [20]) it was 7.79 µg/mL; in test [6] (setting [20]), 4.03 µg/mL. Besides, the IC50 in [7] (setting [20]) was found to be 18.9 µg/mL; in [8] (setting [20]), 0.691 µg/mL; in test [9] (setting [20]) it was 2.3 µg/mL; in test [10] (setting [20]), 0.743 µg/mL; in [11] (setting [20]), 4.26 µg/mL; in test [12] (setting [20]), 1.11 µg/mL. Besides, the IC50 in test [13] (Homo sapiens, COLO 201, read-out: 50% Growth inhibitory concentration (IC50) determined by MTT method) turned out to be 0.979 µg/mL; in test [14] (setting [20]), 2.68 µg/mL; in test [15] (setting [20]) it was 3.93 µg/mL; in test [16] (setting [20]) it was 5.11 µg/mL; in test [17] (Homo sapiens, MKN-45, read-out: 50% Growth inhibitory concentration (IC50) determined by MTT method), 0.809 µg/mL; in test [18] (Homo sapiens, COLO 320DM, read-out: 50% Growth inhibitory concentration (IC50) determined by MTT method) it was 1.78 µg/mL. Also, the IC50 in [19] (setting [20]) was 2.75 µg/mL.
For the compound `CCc1c2c(nc3ccc(O)cc13)-c1cc3c(c(=O)n1C2)COC(=O)[C@]3(O)CC` [SN-38, 7-ethyl-10-hydroxycamptothecin], the “50% Growth inhibitory concentration (IC50) determined by MTT method” value (shortened to “50% Growth inhibitory concentration”) is 0.01116 µg/mL in test [1]; 0.0244 µg/mL in test [2]; 0.00526 µg/mL in test [3]; 0.02523 µg/mL in test [4]; 0.03482 µg/mL in test [5]; 0.00626 µg/mL in test [6]. For the same compound, the “50% Growth inhibitory concentration” value in test [7] amounted to 0.13707 µg/mL; in [8], 0.00291 µg/mL; in test [9], 0.00284 µg/mL; in [10], 0.00281 µg/mL; in [11], 0.09735 µg/mL; in test [12], 0.00199 µg/mL. The “50% Growth inhibitory concentration” value in test [13] amounted to 0.00284 µg/mL; in [14] it was 0.00905 µg/mL; in [15] it was 0.0041 µg/mL; in test [16] it was 0.02227 µg/mL; in test [17] it was 0.0026 µg/mL; in test [18], 0.00343 µg/mL. Further, the “50% Growth inhibitory concentration” value in test [19] stood at 0.00817 µg/mL.
